Series [1] deals with human glioma U87MG, U251 and SHG44 cells. Briefly: SRB antiproliferative assay, results summarised over the glioma cell lines. Type of series: cell-based. To be noted: for IC50: Homo sapiens, Glioma cell, range over U87MG, read-out: IC50 values against different glioma cells (range); for Activity in inhibiting the proliferation of glioma cells: U87MG. How it is done:
(§1) Doxorubicin (DOX, a chemotherapeutic drug) was used as a positive control.
(§2) Sulforhodamine B (SRB) assay as described in previous studies[19],[20] was used to determine the activity of tested compounds inhibiting the proliferation of glioma U87MG, U251, SHG44 cells, and normal human astrocytes (HA). Doxorubicin (DOX) was used as a positive control (CON).

Series [2] relates to human glioma U87MG cells. As to the kind of experiment: SRB antiproliferative assay, U87MG glioma cells. Format: cell-based. To be noted: for IC50: Homo sapiens, U-87 MG, SRB assay, mean ± s.d., n = 3; for Selectivity index (CC50/IC50), U87MG: CC50 in HA / IC50 in U87MG. How it is done: as §1
The procedure of the preparation of crude extract for bioactive assay was described in the previous publication. The crude extract was made to a concentration of 1.0 mg/mL. Sulforhodamine B (SRB) assay was used to evaluate the activity of the crude extract against the proliferation of glioma U87MG cells.
as §2

Series [3] has as its system human glioma SHG44 cells. As to the kind of experiment: SRB antiproliferative assay, SHG44 glioma cells. Type of series: cell-based. To be noted: for IC50: Homo sapiens, SHG-44, SRB assay, mean ± s.d., n = 3; for Selectivity index (CC50/IC50), SHG44: CC50 in HA / IC50 in SHG44. The protocol:
as §1, §2

Series [4] relates to human glioma U251 cells. Briefly: SRB antiproliferative assay, U251 glioma cells. Format: cell-based. To be noted: for IC50: Homo sapiens, U-251, SRB assay, mean ± s.d., n = 3; for Selectivity index (CC50/IC50), U251: CC50 in HA / IC50 in U251. The protocol:
as §1, §2

The test system of series [5] is glioma. Set-up: method as in PMID 20128807, PMID 15747063, PMID 29056497. The conditions noted are these: cited from earlier work.
Series [6] deals with LDH5. As to the kind of experiment: Western blot, LDH5 expression in U87MG cells. Type of series: cell-based, human. The conditions noted are these: 48 h, 1 at 30 μM, 2 at 60 μM, western blot vs blank control. The protocol: (§3) The active compounds 1 and 2 were further assayed for their effects on the expression levels of important tumor glycolytic enzymes (regulators) of HK2, PFKFB3, PKM2, and LDH5. […] Therefore, the effects of 1 and 2 on the expressions of these regulators in U87MG cells were evaluated. 2-Deoxyglucose (2-DG, a hexokinase inhibitor)[8], was used as a positive control. The U87MG cells were treated by 1 (30.0 μM), 2 (60.0 μM), or 2-DG (6.0 mM) for 48 h. Protein prepared from the compound-treated U87MG cells was subjected to western blot analysis. […] The full-length blots of Fig. 5 were provided as supplementary information (Fig. S61).
(§4) Figure 5 The expression levels of HK2, PFKFB3, PKM2, and LDH5 in glioma U87MG cells. U87-MG cells were treated with compounds 1 (30 μM), 2 (60 μM), or 2-DG (6.0 mM) for 48 h. Protein extracted from the compound-treated cells was subjected to western blot analysis.
(§5) Western blot analysis was used to detect the expression levels of tumor glycolytic regulators HK2, PFKFB3, PKM2, and LDH5. The detailed procedure, including protein sample preparation, determination of protein concentration, and western blot analysis, was described in the previous publication.

Series [7] can be described thus: SRB cytotoxicity assay, normal human astrocytes. To be noted: normal human astrocytes (HA), mean ± s.d., n = 3. Type of series: cell-based. The protocol: as §1, §2
Series [8] relates to HK2. Briefly: Western blot, HK2 expression in U87MG cells. Format: cell-based, human. The conditions noted are these: 48 h, 1 at 30 μM, 2 at 60 μM, western blot vs blank control. The protocol: as §3, §4, §5
For series [9], the system named is PKM2. Briefly: Western blot, PKM2 expression in U87MG cells. Format: cell-based, human. To be noted: 48 h, 1 at 30 μM, 2 at 60 μM, western blot vs blank control. How it is done: as §3, §4, §5
Series [10] concerns PFKFB3. Briefly: Western blot, PFKFB3 expression in U87MG cells. Format: cell-based, human. The conditions noted are these: 48 h, 1 at 30 μM, 2 at 60 μM, western blot vs blank control. The protocol: as §3, §4, §5
Series [11] deals with human glioma U87MG, U251 and SHG44 cells. Also on record: method as in PMID 28049552. To be noted: cited from earlier work.
Series [12] is described as follows: Stability in human liver microsomes. As to Percentage compared to the zero time point: tested at 12.5 µg/mL. To be noted: 37 °C; for Percentage compared to the zero time point: human liver microsomes. Type of series: in vitro ADME. The protocol:
Therefore, it is interesting to understand the stability of compound 1 in human liver microsomes. Human liver microsomes were incubated with compound 1 at 37 °C in a water bath and the concentration of 1 at designed time points of 0, 15, 30, 60, 90, 120, 180, 240, and 360 min was determined by HPLC analysis. The results (Table 2 and Fig. 6) indicated the concentration of 1 had no change after the incubation of 30 min. The percentage of 1 was 98.4% (30 min), 70.2% (60 min), 65.3% (90 min), 54.8% (120 min), 35.5% (180 min), 28.2 (240 min), and 19.4% (360 min) when compared to 100.0% (0 min). The data indicated 1 was very stable in human liver microsomes in the first 30 min incubation with concentration gradually decreasing after the incubation of 30 min.
Compound 1 was dissolved in 100 mM NaPO4 solution (pH 7.4) to make a sample solution with a final concentration of 125 μg/mL. Human liver microsomes were diluted by 100 mM NaPO4 solution (pH 7.4) to make liver microsomal solution with a concentration of 1.25 mg/mL. A mixture of the sample solution (90 μL) and the liver microsomal solution (720 μL) was mixed well and then pre-incubated at 37 °C for 7 min. The pre-incubated mixture was initiated by adding 90 μL 10 mM NADPH solution, mixed well, and then incubated at 37 °C in a water bath. At each designed time point of 0, 15, 30, 60, 90, 120, 180, 240 and 360 min, aliquot 80 μL of the incubated mixture was pipette by micropipet and then quenched by the addition of 320 μL methanol. The reaction mixture was centrifuged at 12000 rpm for 10 min at 5 °C to give the supernatant, which was submitted to HPLC analysis.

“Also recorded” adds a separate entry of the source. Where a SMILES comes first, the peptide text is derived from it.

The source of these data is article PMC5758648, “Anti-glioma Natural Products Downregulating Tumor Glycolytic Enzymes from Marine Actinomycete Streptomyces sp. ZZ406” (Scientific Reports, 2018).

Consider `Cc1c(C(=O)O)c(O)cc2c1C(=O)c1c(O)cccc1C2=O` [Compound 6, 3,8-dihydroxy-1-methyl-anthraquinone-2-carboxylic acid], for which the IC50 in series [1] is 10.4 to 36.3 µM; in series [2], 10.4 ± 0.5 µM; in [3], 36.3 ± 0.2 µM; in [4], 13 ± 0.6 µM.

Take `Cc1cc(O)c2c(c1)C(=O)c1cccc(O)c1C2=O` [Compound 5, chrysophanol]: the IC50 in [1] is 0.5 to 3 µM; in [2], 0.5 ± 0.1 µM; in series [3] it was 3 ± 0.2 µM; in series [4], 1.2 ± 0.1 µM.

As to SZ-685C, the “Activity against glioma” value in [5] was “reported to have activity against glioma”.

For the compound `Cc1cc(=O)c2c(CC(=O)C[C@@H](O)CC(=O)O)cccc2o1` [Compound 2, 5-(2′-oxo-4′R-hydroxy-hexanoic acid)-2-methyl-chromone], in [6], the “Expression level of LDH5” value was “clearly reduced; also recorded: remarkably reduced”. For the same compound, the IC50 in series [1] was 21.6 to 25.8 µM; in series [2] it was 25.7 ± 2.4 µM; in [3], 25.8 ± 3.1 µM; in series [4], 21.6 ± 1.7 µM. Besides, the CC50 in series [7] was > 100 µM. The “Selectivity index (CC50/IC50), U87MG” value in series [2] was > 3.8. The “Selectivity index (CC50/IC50), SHG44” value in series [3] is > 3.8. Besides, the “Selectivity index (CC50/IC50), U251” value in [4] is reported as > 4.6. Also, in series [8], the “Expression level of HK2” value is reported as “clearly reduced; also recorded: remarkably reduced”. Also, in series [9], the “Expression level of PKM2” value is “clearly reduced; also recorded: remarkably reduced”. In addition, in series [10], the “Expression level of PFKFB3” value is reported as “clearly reduced; also recorded: remarkably reduced”.

As to `COc1cccc2c1C(=O)c1c(O)c3c(c(O)c1C2=O)C[C@@](O)(C(=O)CO)C[C@@H]3O[C@H]1C[C@H](N)[C@H](O)[C@H](C)O1` [DOX, Doxorubicin, reference compound], the IC50 in [1] is 1.9 to 9.6 µM. Further, the cytotoxic concentration (CC50) in [7] was 8.7 ± 1.2 µM. Also, in series [2], the “Selectivity index (CC50/IC50), U87MG” value was 4.6 and the IC50 was determined as 1.9 ± 0.4 µM. In series [3], the “Selectivity index (CC50/IC50), SHG44” value is listed as 3.5 and the midpoint of inhibition, the IC50, lay at 2.5 ± 1.1 µM. Further, in [4], the “Selectivity index (CC50/IC50), U251” value worked out at 0.9 and it took 9.6 ± 1.3 µM to reach half-maximal inhibition (IC50).

For the compound `CC(C)[C@@H]1NC(=O)[C@H](C)OC(=O)[C@@H](C(C)C)NC(=O)[C@@H](C(C)C)OC(=O)[C@H](C(C)C)NC(=O)[C@H](C)OC(=O)[C@@H](C(C)C)NC(=O)[C@@H](C(C)C)OC(=O)[C@H](C(C)C)NC(=O)[C@H](C)OC(=O)[C@@H](C(C)C)NC(=O)[C@@H](C(C)C)OC1=O` [Compound 11, valinomycin], in [11], the “Activity in inhibiting the proliferation of different glioma cells” value is on record as “showed activity”.

With `O=C(O)c1cc(O)c2c(c1)C(=O)c1cccc(O)c1C2=O` [rhein], the “Activity against glioma” value in series [5] was “reported to have activity against glioma”.

On to `CC(=O)N1CC(C(=O)O)CN1C(=O)C(C)C` (stereo not drawn) [Compound 4, 1-acetyl-2-isobutyrylpyrazolidine-4-carboxylic acid], for which, in [1], the “Activity in inhibiting the proliferation of glioma cells” value was “inactive”.

As to `O=C1c2cccc(O)c2C(=O)c2c(O)cc(CO)cc21` [aloe emodin], the “Activity against glioma” value in series [5] is given as “reported to have activity against glioma”.

For `CC(=O)N[C@@H](CC(C)C)C(=O)N[C@@H](CO)C(=O)N[C@@H](C)C(=O)O` [Compound 3, N-acetyl-L-leucine-L-serine-L-alanine] (Ac-Leu-Ser-Ala-OH), the “Activity in inhibiting the proliferation of glioma cells” value in series [1] is “inactive”.

With `O=C(O)c1cc(CO)c2c(c1)C(=O)c1cccc(O)c1C2=O` [Compound 1, 1-hydroxymethyl-8-hydroxy-anthraquinone-3-carboxylic acid], the “Expression level of LDH5” value in series [6] is listed as “clearly reduced; also recorded: remarkably reduced”. The IC50 in series [1] was 4.7 to 8.1 µM; in series [2], 4.7 ± 0.2 µM; in [3] it was 8.1 ± 0.4 µM; in series [4] it was 5.7 ± 0.3 µM. Further, in series [7], the CC50 was > 100 µM. Moreover, the “Selectivity index (CC50/IC50), U87MG” value in series [2] is listed as > 21.3. Further, the “Selectivity index (CC50/IC50), SHG44” value in series [3] was > 12.3. Further, in series [4], the “Selectivity index (CC50/IC50), U251” value is listed as > 17.5. The “Expression level of HK2” value in series [8] is “clearly reduced; also recorded: remarkably reduced”. The “Expression level of PKM2” value in [9] is “clearly reduced; also recorded: remarkably reduced”. Also, the “Stability in human liver microsomes” value in series [12] is “good stability”. For the same compound, the “Concentration in human liver microsomes” value in series [12] (0 min) worked out at 12400 ng/mL; in [12] (15 min), 12000 ng/mL; in [12] (30 min) it was 12200 ng/mL; in [12] (60 min), 8700 ng/mL; in series [12] (90 min), 8100 ng/mL; in series [12] (120 min), 6800 ng/mL. The figures for the “Concentration in human liver microsomes” value in series [12] (180 min), in series [12] (240 min) and in series [12] (360 min) were 4400 ng/mL, 3500 ng/mL and 2400 ng/mL, respectively. The “Stability in human liver microsomes, first 30 min” value in series [12] (first 30 min incubation) is “very stable”. The “Percentage compared to the zero time point” value in series [12] (0 min) was 100.0%; in series [12] (15 min) it was 96.8%; in series [12] (30 min) it was 98.4%; in series [12] (60 min), 70.2%; in series [12] (90 min), 65.3%; in [12] (120 min), 54.8%. The “Percentage compared to the zero time point” value in series [12] (180 min) was found to be 35.5%; in series [12] (240 min) it was 28.2%; in series [12] (360 min) it was 19.4%. For the same compound, the “Expression level of PFKFB3” value in series [10] is on record as “clearly reduced; also recorded: remarkably reduced”.
